# Data published in patent US11084841B1, “Chitooligosaccharide-N-geraniol derivatives, methods for preparing and application thereof” (Jiangnan University, priority 2020, dated 2021).
# Tests used:
# [1] = test system: Escherichia coli; experiment: antibacterial activity test, culture plate with antibacterial substance; assay type: cell-based; settings: 1 mg/ml antibacterial substance, 37° C., 24 hours, versus control plate, FIG. 6
# Protocol: (§1) Gram negative and positive bacterium (Escherichia coli and Staphylococcus aureus) are selected for the antibacterial activity test. The bacteria strain was selected to grow in LB culture medium and sub-culture to the second generation in logarithmic phase. The bacterial suspension was diluted to the required concentration (10^5 CFU/ml) with normal saline. Under the aseptic condition, the bacterial solution and antibacterial substance solution (mix 5 μL bacterial solution and 5 mL LB liquid medium containing 1 mg/ml antibacterial substance) were added onto the culture plate and mixed evenly. The control group was the culture plate without antibacterial substance, and then the culture plates were incubated at 37° C. for 24 hours to observe the growth of bacteria.
# [2] = test system: Staphylococcus aureus; experiment: as above; assay type: cell-based; settings: 1 mg/ml antibacterial substance, 37° C., 24 hours, versus control plate, FIG. 5
# Protocol: as §1
compound,measurement,setting,value
"CC(C)=CCC/C(C)=C/CO [Ger, (2E)-3,7-dimethylocta-2,6-dien-1-ol]",inhibition of bacterial growth,[1],able to inhibit
same,inhibition of bacterial growth,[2],able to inhibit
